The record followed here is PubChem BioAssay (NCI).

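These data come from cells grown in 96-well plates and exposed to compound for 48 hours at five concentrations. At the GI50, growth is halved. TGI: concentration producing complete growth inhibition.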 Some results are limits rather than exact numbers.

Some test systems named below: CAKI-1 renal; HT29 colon; NCI-H522 lung; PC-3 prostate; SK-MEL-5 melanoma; SNB-75 CNS; SW-620 colon; TK-10 renal; UACC-62 melanoma; SF-539 CNS.
What all share (test): NCI tumour cell line growth inhibition, 48 h

As for `Cc1c2c(nn1-c1ccc(S(=O)(=O)NC(=S)NC(=O)c3ccccc3)cc1)-c1ccccc1CC2`, the GI50 was 16.1 µM in the experiment on CAKI-1 renal; > 100 µM in the experiment with HT29 colon; 50.4 µM in the experiment on NCI-H522 lung; 42 µM with PC-3 prostate; 30.7 µM with SK-MEL-5 melanoma; 59.5 µM in the experiment on SNB-75 CNS. For the same molecule, the figures for the GI50 in the experiment with SW-620 colon, in the experiment on TK-10 renal and with UACC-62 melanoma were > 100 µM, 28.9 µM and 29 µM, respectively. Also, the TGI with CAKI-1 renal is 51.9 µM; with HT29 colon, > 100 µM; with NCI-H522 lung, > 100 µM; in the experiment on PC-3 prostate, > 100 µM; in the experiment with SK-MEL-5 melanoma it was 96.5 µM; with SNB-75 CNS, > 100 µM. Also, the TGI with SW-620 colon was > 100 µM; in the experiment with TK-10 renal, 78.5 µM; in the experiment with UACC-62 melanoma it was > 100 µM.

With `CC(=O)OCCCC#CC#Cc1cccc(=O)o1`, the GI50 is 13.6 µM in the experiment on CAKI-1 renal; 24.9 µM with HT29 colon; 32.1 µM with NCI-H522 lung; 18.4 µM in the experiment with PC-3 prostate; 16.1 µM with SK-MEL-5 melanoma; 29.1 µM in the experiment on SNB-75 CNS. Moreover, the GI50 in the experiment with SW-620 colon is 13.6 µM; in the experiment on TK-10 renal, 13 µM; in the experiment with UACC-62 melanoma, 14.6 µM. Moreover, the TGI is 28.3 µM in the experiment with CAKI-1 renal; 71.5 µM in the experiment with HT29 colon; > 100 µM with NCI-H522 lung; 44.4 µM in the experiment on PC-3 prostate; 32.6 µM in the experiment with SK-MEL-5 melanoma; 67.2 µM in the experiment with SNB-75 CNS. Moreover, the TGI in the experiment with SW-620 colon turned out to be 37.5 µM; in the experiment with TK-10 renal it was 26.4 µM; with UACC-62 melanoma it was 28.9 µM.

Take `O=c1cccc2n1CC1CNC[C@H]2C1`: the TGI in the experiment on CAKI-1 renal, with HT29 colon, in the experiment on NCI-H522 lung, with PC-3 prostate, with SK-MEL-5 melanoma and in the experiment with SNB-75 CNS was > 100 µM each time. Moreover, the TGI in the experiment on SW-620 colon, in the experiment with TK-10 renal and with UACC-62 melanoma was > 100 µM in each case.

Consider `CC(C)=NNC(=S)NC12CC3CC(CC(C3)C1)C2`, for which the TGI in the experiment with CAKI-1 renal, in the experiment on HT29 colon, in the experiment on NCI-H522 lung, with SF-539 CNS, in the experiment with SK-MEL-5 melanoma and in the experiment with SNB-75 CNS was > 100 µM in each case. Further, the TGI in the experiment on SW-620 colon, with TK-10 renal and with UACC-62 melanoma was > 100 µM each time.

For `O=[N+]([O-])C=C1c2ccccc2-c2ccccc21`, the TGI in the experiment with CAKI-1 renal was 24.5 µM; in the experiment on HT29 colon, 37.3 µM; in the experiment with SF-539 CNS it was 31.3 µM; in the experiment with SNB-75 CNS, 40.7 µM; in the experiment on SW-620 colon, 31.2 µM; in the experiment on TK-10 renal, 32.3 µM.

Regarding `O=C1C(=O)N(c2ccc(Cl)cc2)C(=O)C(=Nc2cccc3c(=O)[nH][nH]c(=O)c23)C1c1nc2ccccc2o1` (stereo not given), the TGI in the experiment with CAKI-1 renal, in the experiment with HT29 colon, in the experiment with SF-539 CNS, in the experiment on SK-MEL-5 melanoma, with SNB-75 CNS and with SW-620 colon was > 100 µM in each case. Further, the TGI with TK-10 renal and with UACC-62 melanoma was > 100 µM throughout.

Regarding `Cc1ccc(C2=Nc3ccccc3S(=O)C(c3ccc4c(c3)OCO4)C2)cc1` (stereo not given), the TGI with CAKI-1 renal was > 100 µM; in the experiment with HT29 colon it was 31.5 µM; with NCI-H522 lung, 44.7 µM; with SF-539 CNS, 46.3 µM; with SK-MEL-5 melanoma, 29.2 µM; in the experiment on SNB-75 CNS, > 100 µM. The TGI is 34.5 µM with SW-620 colon, > 100 µM in the experiment with TK-10 renal and 51.2 µM in the experiment with UACC-62 melanoma.

As to `O=C(O)c1c2c(cc3c(=O)cc(-c4ccccc4)oc13)CCCC2`, the TGI with HT29 colon, in the experiment with NCI-H522 lung, in the experiment on SF-539 CNS, with SK-MEL-5 melanoma, in the experiment on SNB-75 CNS and in the experiment with SW-620 colon was > 100 µM each time. In addition, the TGI with TK-10 renal and in the experiment with UACC-62 melanoma was > 100 µM each time.

In the case of `COC(=O)C1[C@H](c2ccc3c(c2)OCO3)OC(=O)[C@]1(C(=O)OC)C(=O)c1ccc(OC)c(OC)c1` (stereo not given in full), the TGI in the experiment with CAKI-1 renal, in the experiment on HT29 colon, in the experiment on SK-MEL-5 melanoma, in the experiment with SNB-75 CNS, in the experiment on SW-620 colon and in the experiment with TK-10 renal was > 100 µM each time. The TGI with UACC-62 melanoma is > 100 µM.

With `c1ccc2c(CNCCCCCCCCNCc3cccc4ccccc34)cccc2c1`, the TGI was determined as 5.01 µM in the experiment on CAKI-1 renal; 3.35 µM in the experiment on HT29 colon; 3.24 µM in the experiment with NCI-H522 lung; 3.04 µM in the experiment on SF-539 CNS; 3.32 µM in the experiment with SK-MEL-5 melanoma; 3.35 µM in the experiment on SNB-75 CNS. The TGI with SW-620 colon worked out at 3.29 µM; with TK-10 renal, 5.53 µM; in the experiment on UACC-62 melanoma, 3.24 µM.

In the case of `Cc1ccc(C(=O)NCCN(C)C)c2nc3ccccc3cc12`, the TGI in the experiment on CAKI-1 renal was 25.6 µM; in the experiment with HT29 colon it was 11.3 µM; with SK-MEL-5 melanoma, 2.95 µM; in the experiment with SNB-75 CNS, 3.54 µM; in the experiment on SW-620 colon, 3.52 µM; with TK-10 renal, 12.2 µM. In addition, the TGI in the experiment with UACC-62 melanoma was > 100 µM.

For `N#CC1=C(N)Oc2c(sc3c(Br)cccc23)C1c1ccc(Cl)cc1` (stereo not given), the GI50 in the experiment on CAKI-1 renal was 0.477 µM; with HT29 colon it was 0.711 µM; in the experiment with NCI-H522 lung, 0.367 µM; in the experiment on PC-3 prostate, 0.56 µM; in the experiment on SK-MEL-5 melanoma, 0.559 µM; with SNB-75 CNS, 0.478 µM. Besides, the GI50 with SW-620 colon is 0.408 µM; in the experiment with TK-10 renal it was 3.47 µM; with UACC-62 melanoma, 0.435 µM. The TGI with CAKI-1 renal is 16.3 µM; with HT29 colon, 2.85 µM; in the experiment with NCI-H522 lung, 2.43 µM; with PC-3 prostate, 5.55 µM; in the experiment on SK-MEL-5 melanoma, 2.72 µM; with SNB-75 CNS it was 9.41 µM. Besides, the TGI with SW-620 colon was > 100 µM; with TK-10 renal, 12.8 µM; with UACC-62 melanoma, 8.35 µM.

For `CN(/N=C\c1ccnc2ccccc12)c1ccccc1`, the TGI in the experiment with CAKI-1 renal was determined as 91.7 µM; in the experiment with HT29 colon it was 35.9 µM; in the experiment on NCI-H522 lung, 41.9 µM; in the experiment on SF-539 CNS, 71.6 µM; in the experiment with SK-MEL-5 melanoma it was 31.2 µM; with SNB-75 CNS, 94.9 µM. For the same molecule, the values for the TGI in the experiment with SW-620 colon, in the experiment on TK-10 renal and in the experiment with UACC-62 melanoma were 51.4 µM, 98.7 µM and 37.2 µM, respectively.
